Measurements as given in patent US20080274892A1, “Novel Haloalkylsulfonanilide Derivative, Herbicide, and Method of Use Thereof” (priority 2005, published 2008).

Legend:
[1] = tested on: paddy rice plant (cultivar: Nihonbare); assay: Test Example 3: phytotoxicity test for transplanted paddy rice plant; assay type: in vivo; conditions: 21 days after treatment; for Phytotoxicity to paddy rice: transplanted rice
Experimental: (§1) The standard of judgment for herbicidal efficacy (degree of growth inhibition) and phytotoxicity 4 . . . 90%-100% of herbicidal efficacy or phytotoxicity 3 . . . 70%-89% of herbicidal efficacy or phytotoxicity 2 . . . 40%-69% of herbicidal efficacy or phytotoxicity 1 . . . 1%-39% of herbicidal efficacy or phytotoxicity 0 . . . 0% of herbicidal efficacy or phytotoxicity
A 75 cm^2 plastic pot was filled with soil (clay loam), and water was added so that the soil was submerged under 5 cm depth of water. Two paddy rice plant (cultivar: Nihonbare) at two leaves stage were transplanted at the depth of 1 cm and kept in a hot house. […] The pot was kept in a hot house for 21 days after the treatment and the phytotoxicity was investigated and evaluated according to the standard in Test Example 1 by comparing with the untreated control. “-” in the table represents test not done.

bulrush [2] = assay: Test Example 2: herbicidal efficacy on rice paddy weeds post-emergence; assay type: in vivo, Scirpus juncoides; conditions: 21 days after treatment
Excerpt: as §1
(§2) A 75 cm^2 plastic pot was filled with soil (clay loam) and planted seeds of barnyard glass and bulrush which is a rice paddy weed. After covering the top with 75 cm^3 soil mixed with seeds of false pimpernel, the pot was filled with water so that the soil submerged under 5 cm depth of water and kept in a hot house. […] The pot was kept in a hot house for 21 days after the treatment and the herbicidal efficacy was investigated and evaluated according to the standard in Test Example 1 by comparing with the untreated control. “-” in the table represents test not done.

false pimpernel [3] = assay: as above; assay type: in vivo, Lindernia pyxidaria; conditions: 21 days after treatment
Excerpt: as §1, §2

false pimpernel [4] = assay: Test Example 1: herbicidal efficacy on rice paddy weeds pre-emergence; assay type: in vivo, Lindernia pyxidaria; conditions: 21 days
Experimental: (§3) A 75 cm^2 plastic pot was filled with soil (clay loam) and planted seeds of bulrush which is a rice paddy weed. After covering the top with 75 cm^3 soil mixed with seeds of false pimpernel, the pot was filled with water so that the soil submerged under 5 cm depth of water. The predetermined effective dosage ([…]) of a formulation containing the compound of the present invention prepared according to Formulation Example 1-4 as an active ingredient was diluted in water and added to the pot water surface dropwise. The pot was kept in a hot house for 21 days and the herbicidal efficacy was investigated. The herbicidal efficacy was evaluated according to the following standard by comparing with untreated control. “-” in the table represents test not done.
as §1

bulrush [5] = assay: as above; assay type: in vivo, Scirpus juncoides; conditions: 21 days
Experimental: as §3, §1

[6] = dosage 1000 g/ha, treated 5 days after transplantation
[7] = dosage 1000 g/ha, post-emergence, one leaf stage
[8] = dosage 300 g/ha, post-emergence, one leaf stage
[9] = dosage 1000 g/ha active ingredient, post-emergence treatment at one leaf stage, vs untreated control

SMILES | Phytotoxicity to paddy rice [1, 6] | Bulrush post (herbicidal efficacy grade) (bulrush [2]; [7]) | False pimpernel post (herbicidal efficacy grade) (false pimpernel [3]; [7]) | False pimpernel pre (herbicidal efficacy grade) (false pimpernel [4]; dosage 1000 g/ha) | Bulrush pre (herbicidal efficacy grade) (bulrush [5]; dosage 1000 g/ha) | Phytotoxicity to paddy rice ([1]; dosage 300 g/ha) | Bulrush post (herbicidal efficacy grade) (bulrush [2]; [8]) | False pimpernel post (herbicidal efficacy grade) (false pimpernel [3]; [8]) | False pimpernel pre (herbicidal efficacy grade) (false pimpernel [4]; dosage 300 g/ha) | Bulrush pre (herbicidal efficacy grade) (bulrush [5]; dosage 300 g/ha) | also measured
CC(C)=CC1(C)CN(Cc2ccccc2NS(=O)(=O)C(F)(F)F)C(=O)O1 (stereo not shown) [Compound 1-164] | 1 (1%-39% of herbicidal efficacy or phytotoxicity) | 4 (90%-100% of herbicidal efficacy or phytotoxicity) | 4 (90%-100% of herbicidal efficacy or phytotoxicity) | 4 (90%-100% of herbicidal efficacy or phytotoxicity) | 4 (90%-100% of herbicidal efficacy or phytotoxicity) | – | – | – | – | – | –
CC(C)COC(=O)N(c1ccccc1CN1C(=O)OC(C)C1=O)S(=O)(=O)C(F)(F)F (stereo not shown) [Compound 1-191] | – | – | – | – | – | 0 (0% of herbicidal efficacy or phytotoxicity) | 4 (90%-100% of herbicidal efficacy or phytotoxicity) | 2 (40%-69% of herbicidal efficacy or phytotoxicity) | 4 (90%-100% of herbicidal efficacy or phytotoxicity) | 4 (90%-100% of herbicidal efficacy or phytotoxicity) | –
O=C1OC2(CC2)CN1Cc1ccccc1NS(=O)(=O)C(F)(F)F [Compound 1-88] | – | – | – | – | – | 1 (1%-39% of herbicidal efficacy or phytotoxicity) | 4 (90%-100% of herbicidal efficacy or phytotoxicity) | 4 (90%-100% of herbicidal efficacy or phytotoxicity) | 4 (90%-100% of herbicidal efficacy or phytotoxicity) | 4 (90%-100% of herbicidal efficacy or phytotoxicity) | –
CCCCCCCCCCCCCCCCOC(=O)N(c1ccccc1CN1CC(C)(C)OC1=O)S(=O)(=O)C(F)(F)F [Compound 1-84] | – | – | – | – | – | 1 (1%-39% of herbicidal efficacy or phytotoxicity) | 3 (70%-89% of herbicidal efficacy or phytotoxicity) | 4 (90%-100% of herbicidal efficacy or phytotoxicity) | 4 (90%-100% of herbicidal efficacy or phytotoxicity) | 4 (90%-100% of herbicidal efficacy or phytotoxicity) | –
COCOc1cccc(CN2CC(C)(C)OC2=O)c1N(C(=O)OCC(C)C)S(=O)(=O)C(F)(F)F [1-213] | – | – | – | – | – | – | – | – | – | – | Phytotoxicity to paddy rice (grade) ([1]; dosage 1000 g/ha active ingredient, treated 5 days after transplantation, vs untreated control): 1 (1%-39% of herbicidal efficacy or phytotoxicity); Bulrush post (herbicidal efficacy grade) (bulrush [2]; [9]): 4 (90%-100% of herbicidal efficacy or phytotoxicity); False pimpernel post (herbicidal efficacy grade) (false pimpernel [3]; [9]): 2 (40%-69% of herbicidal efficacy or phytotoxicity); Bulrush pre (herbicidal efficacy grade) (bulrush [5]; dosage 1000 g/ha active ingredient, vs untreated control): 4 (90%-100% of herbicidal efficacy or phytotoxicity)
CCC1OC(=O)N(Cc2ccccc2N(C(=O)OCC(C)C)S(=O)(=O)C(F)(F)F)C1=O (stereo not shown) [Compound 1-193] | – | – | – | – | – | 0 (0% of herbicidal efficacy or phytotoxicity) | 4 (90%-100% of herbicidal efficacy or phytotoxicity) | 1 (1%-39% of herbicidal efficacy or phytotoxicity) | 4 (90%-100% of herbicidal efficacy or phytotoxicity) | 4 (90%-100% of herbicidal efficacy or phytotoxicity) | –
CCOC1N(Cc2ccccc2NS(=O)(=O)C(F)(F)F)C(=O)OC1(C)C (stereo not shown) [Compound 1-198] | – | – | – | – | – | 2 (40%-69% of herbicidal efficacy or phytotoxicity) | – | – | – | 4 (90%-100% of herbicidal efficacy or phytotoxicity) | –
CCc1cn(Cc2ccccc2N(C(=O)OCC(C)C)S(=O)(=O)C(F)(F)F)c(=O)o1 [Compound 1-210] | – | – | – | – | – | 0 (0% of herbicidal efficacy or phytotoxicity) | 4 (90%-100% of herbicidal efficacy or phytotoxicity) | 0 (0% of herbicidal efficacy or phytotoxicity) | 4 (90%-100% of herbicidal efficacy or phytotoxicity) | 3 (70%-89% of herbicidal efficacy or phytotoxicity) | –
CCc1cn(Cc2ccccc2NS(=O)(=O)C(F)(F)F)c(=O)o1 [Compound 1-209] | – | – | – | – | – | 1 (1%-39% of herbicidal efficacy or phytotoxicity) | 3 (70%-89% of herbicidal efficacy or phytotoxicity) | 2 (40%-69% of herbicidal efficacy or phytotoxicity) | 4 (90%-100% of herbicidal efficacy or phytotoxicity) | 3 (70%-89% of herbicidal efficacy or phytotoxicity) | –
CC1(C)CN(Cc2ccccc2N(C(=O)OCc2ccccc2)S(=O)(=O)C(F)(F)F)C(=O)O1 [Compound 1-83] | – | – | – | – | – | 0 (0% of herbicidal efficacy or phytotoxicity) | 4 (90%-100% of herbicidal efficacy or phytotoxicity) | 1 (1%-39% of herbicidal efficacy or phytotoxicity) | 1 (1%-39% of herbicidal efficacy or phytotoxicity) | 4 (90%-100% of herbicidal efficacy or phytotoxicity) | –
CC1(COCc2ccccc2)CN(Cc2ccccc2NS(=O)(=O)C(F)(F)F)C(=O)O1 (stereo not shown) [Compound 1-173] | 1 (1%-39% of herbicidal efficacy or phytotoxicity) | 4 (90%-100% of herbicidal efficacy or phytotoxicity) | 4 (90%-100% of herbicidal efficacy or phytotoxicity) | 4 (90%-100% of herbicidal efficacy or phytotoxicity) | 4 (90%-100% of herbicidal efficacy or phytotoxicity) | – | – | – | – | – | –
CC(C)COC(=O)N(c1ccccc1CN1CC(C)(c2ccccc2)OC1=O)S(=O)(=O)C(F)(F)F (stereo not shown) [Compound 1-141] | – | – | – | – | – | 1 (1%-39% of herbicidal efficacy or phytotoxicity) | 4 (90%-100% of herbicidal efficacy or phytotoxicity) | 4 (90%-100% of herbicidal efficacy or phytotoxicity) | 4 (90%-100% of herbicidal efficacy or phytotoxicity) | 3 (70%-89% of herbicidal efficacy or phytotoxicity) | –
CC1(C)OC1C1(C)CN(Cc2ccccc2NS(=O)(=O)C(F)(F)F)C(=O)O1 (stereo not shown) [Compound 1-176] | 1 (1%-39% of herbicidal efficacy or phytotoxicity) | 4 (90%-100% of herbicidal efficacy or phytotoxicity) | 4 (90%-100% of herbicidal efficacy or phytotoxicity) | 4 (90%-100% of herbicidal efficacy or phytotoxicity) | 4 (90%-100% of herbicidal efficacy or phytotoxicity) | – | – | – | – | – | –
COCC1CN(Cc2ccccc2NS(=O)(=O)C(F)(F)F)C(=O)O1 (stereo not shown) [Compound 1-35] | 1 (1%-39% of herbicidal efficacy or phytotoxicity) | 4 (90%-100% of herbicidal efficacy or phytotoxicity) | 4 (90%-100% of herbicidal efficacy or phytotoxicity) | 4 (90%-100% of herbicidal efficacy or phytotoxicity) | 4 (90%-100% of herbicidal efficacy or phytotoxicity) | – | – | – | – | – | –
COC(=O)N(c1ccccc1CN1CC(C)(C=C(C)C)OC1=O)S(=O)(=O)C(F)(F)F (stereo not shown) [Compound 1-166] | 2 (40%-69% of herbicidal efficacy or phytotoxicity) | 4 (90%-100% of herbicidal efficacy or phytotoxicity) | 4 (90%-100% of herbicidal efficacy or phytotoxicity) | 4 (90%-100% of herbicidal efficacy or phytotoxicity) | 4 (90%-100% of herbicidal efficacy or phytotoxicity) | – | – | – | – | – | –
CC(C)=CC1(C)CN(Cc2ccccc2N(C(=O)OCC(C)C)S(=O)(=O)C(F)(F)F)C(=O)O1 (stereo not shown) [Compound 1-165] | 1 (1%-39% of herbicidal efficacy or phytotoxicity) | 4 (90%-100% of herbicidal efficacy or phytotoxicity) | 4 (90%-100% of herbicidal efficacy or phytotoxicity) | 4 (90%-100% of herbicidal efficacy or phytotoxicity) | 4 (90%-100% of herbicidal efficacy or phytotoxicity) | – | – | – | – | – | –
